Data from patent US20240361301A1, “METHODS AND COMPOSITIONS FOR MODULATING GOBLET CELLS AND FOR MUCO-OBSTRUCTIVE DISEASES” (Flagship Pioneering Innovations VI, LLC, priority 2021, published 2024).

Assays:
[1] = system: mouse intestinal organoids; assay: Mouse small intestinal organoid differentiation, lineage markers by Q-PCR; format: cell-based; details: mouse intestinal organoids in ENR media, after 5 days of treatments, FIG. 1
Excerpt: Cryopreserved mouse intestinal organoids derived from small intestine were obtained from Stem Cell Technologies. The organoids were thawed and propagated in Intesticult Growth Medium (Mouse) (purchased from Stem Cell Technologies) following the company's instructions. Briefly, approximately 100 organoid fragments/well are embedded in 6 Matrigel domes in 6-well plates and growth media is renewed every 2-3 days. The organoids are passaged every 5-6 days in 1:4 ratio. To assess the potential of the predicted perturbations to induce or reduce the goblet cell lineage during organoid differentiation, an in vitro assay was established to induce the various intestinal lineages (enterocytes, goblet cells, Paneth cells, Enteroendocrine cells) based on published data (Yin et al, Nat. Meth. 2013). Briefly, organoid fragments are embedded in Matrigel and grown in custom-made media in the presence of EGF, Noggin, Rspondin (ENR) supplemented with the indicated factors (Table 4) that are known to induce markers of the various intestinal lineages. The expression of markers and the induction of the various cell lineages was assessed by Q-PCRs after 5 days of treatments (FIG. 1). Further characterization of the organoids will be performed by immunofluorescence staining and flow cytometry. For immunofluorescence commercially available antibodies against Muc2, ChrA, and ALPI will be used.

[2] = system: mouse intestinal organoids; details: factors known to induce markers of the intestinal lineages (Yin et al.), ENR media; cited from earlier work
[3] = system: Human bronchial epithelial cells (HBECs) from COPD donors; assay: IL-13 induced goblet hyperplasia in COPD donor HBEC air-liquid interface culture, qPCR; format: cell-based; details: 0.3 ng/ml IL-13, ALI day 14, vs DMSO
Excerpt: Air-liquid interface (ALI) differentiation of primary human bronchial epithelial cells (HBECs) is an accepted in vitro model of IL-13-induced goblet cell hyperplasia. HBECs were initially thawed into T75 flasks in PneumaCult maintenance media, allowed to expand, then seeded into apical chamber of transwells. After reaching confluency, medium was removed from the apical and basal chambers, and replaced only in the basal chamber with complete PneumaCult-ALI Medium to start air-liquid interface (ALI) differentiation. Cells were differentiated under ALI conditions for 14 days, in presence or absence of IL-13. Medium in the basal chamber containing IL-13 and test compounds was replenished 3 times a week, and excess mucus was washed from the apical chamber with PBS twice a week starting on day 7. At day 14, differentiation to goblet, ciliated, and club cells is assessed by histology (IHC) or qPCR, using goblet marker (Muc5ac), ciliated cell markers (Foxj1, Acetyl α-tubulin) and club cell marker (Scgb1a1) (FIG. 5).
Human bronchial epithelial cells (HBECs) from two COPD donors were differentiated in the presence of 0.3 ng/ml IL-13 and test compounds. At day 14, cultures were processed for qPCR, and evaluated for lung epithelial markers: goblet (Muc5ac), ciliated (Foxj1), club (Scgb1a1). 2^-ΔCt values were transformed to log form and normalized to DMSO. […]

SMILES	expression of muc2 gene, a marker of Goblet cells (Q-PCR) [1]	Cell lineage induced by factor [2]	goblet cells / goblet hyperplasia (Muc5ac qPCR) ([3]; FIG. 6A)	differentiation to ciliated (Foxj1) and club (Scgb1a1) cells (qPCR) ([3]; FIG. 6B-6C)
C[C@H](NC(=O)Cc1cc(F)cc(F)c1)C(=O)N[C@H](C(=O)OC(C)(C)C)c1ccccc1 [DAPT]	induces the expression of muc2 gene	Enteroendocrine Cells, Paneth		
CC[C@H]1OC(=O)[C@H](C)[C@@H](O[C@H]2C[C@@](C)(OC)[C@@H](O)[C@H](C)O2)[C@H](C)[C@@H](O[C@@H]2O[C@H](C)C[C@H](N(C)C)[C@H]2O)[C@](C)(O)C[C@@H](C)CN(C)[C@H](C)[C@@H](O)[C@]1(C)O [C]			inhibited goblet cells	promoting or maintaining differentiation to ciliated and club cells
Cc1ccc2nc(NC(=O)CSc3nc4c(c(=O)n3-c3ccccc3)SCC4)sc2c1 [IWP2]		Enterocytes, Enteroendocrine Cells		
